Laboratory results published in publication PMC9329436, “Optimization of the 4-anilinoquin(az)oline scaffold as epidermal growth factor receptor (EGFR) inhibitors for chordoma utilizing a toxicology profiling assay platform” (Scientific Reports, 2022).
Read-outs that look alike come from different tables or passages of the source.

Columns and labels:
Type in all cases: biochemical
[1] = molecular target: 320 wild-type protein kinases (Homo sapiens, UniProt Q05655); conditions: PKC-delta, singlicate
Source text: (§1) Table S4. Profiling of two compounds at two concentrations against 320 wild-type protein kinases; singlicate measurement; Residual activities (% of control).

[2] = molecular target: 320 wild-type protein kinases (Homo sapiens, UniProt P42684); conditions: singlicate
Source text: as §1

[3] = molecular target: T1, 320 wild-type protein kinases (Homo sapiens, UniProt Q04771); conditions: singlicate
T1 sequence (Q04771 21-509): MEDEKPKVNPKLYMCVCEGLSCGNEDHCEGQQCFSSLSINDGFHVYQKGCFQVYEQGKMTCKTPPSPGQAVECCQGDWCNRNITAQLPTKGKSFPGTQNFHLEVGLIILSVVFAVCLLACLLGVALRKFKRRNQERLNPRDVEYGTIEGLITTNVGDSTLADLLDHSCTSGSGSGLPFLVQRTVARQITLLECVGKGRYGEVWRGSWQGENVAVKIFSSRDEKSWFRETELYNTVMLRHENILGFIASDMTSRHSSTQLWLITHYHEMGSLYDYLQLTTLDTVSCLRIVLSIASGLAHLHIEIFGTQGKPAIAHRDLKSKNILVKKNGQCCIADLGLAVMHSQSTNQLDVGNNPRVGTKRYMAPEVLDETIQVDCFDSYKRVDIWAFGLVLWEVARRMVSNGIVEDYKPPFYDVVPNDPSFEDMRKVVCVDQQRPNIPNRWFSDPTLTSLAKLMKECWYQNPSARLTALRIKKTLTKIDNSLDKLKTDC
Source text: as §1

[4] = molecular target: 320 wild-type protein kinases (Homo sapiens, UniProt Q9BWU1); conditions: CDK19/CycC, singlicate
Source text: as §1

[5] = molecular target: 320 wild-type protein kinases (Homo sapiens, UniProt P07947); conditions: kinase YES, singlicate
Source text: as §1

[6] = molecular target: 320 wild-type protein kinases (Homo sapiens, UniProt Q9UQM7); conditions: CAMK2A, singlicate
Source text: as §1

[7] = molecular target: T2, 320 wild-type protein kinases (Homo sapiens, UniProt P25098); conditions: singlicate
T2 sequence (P25098 1-689): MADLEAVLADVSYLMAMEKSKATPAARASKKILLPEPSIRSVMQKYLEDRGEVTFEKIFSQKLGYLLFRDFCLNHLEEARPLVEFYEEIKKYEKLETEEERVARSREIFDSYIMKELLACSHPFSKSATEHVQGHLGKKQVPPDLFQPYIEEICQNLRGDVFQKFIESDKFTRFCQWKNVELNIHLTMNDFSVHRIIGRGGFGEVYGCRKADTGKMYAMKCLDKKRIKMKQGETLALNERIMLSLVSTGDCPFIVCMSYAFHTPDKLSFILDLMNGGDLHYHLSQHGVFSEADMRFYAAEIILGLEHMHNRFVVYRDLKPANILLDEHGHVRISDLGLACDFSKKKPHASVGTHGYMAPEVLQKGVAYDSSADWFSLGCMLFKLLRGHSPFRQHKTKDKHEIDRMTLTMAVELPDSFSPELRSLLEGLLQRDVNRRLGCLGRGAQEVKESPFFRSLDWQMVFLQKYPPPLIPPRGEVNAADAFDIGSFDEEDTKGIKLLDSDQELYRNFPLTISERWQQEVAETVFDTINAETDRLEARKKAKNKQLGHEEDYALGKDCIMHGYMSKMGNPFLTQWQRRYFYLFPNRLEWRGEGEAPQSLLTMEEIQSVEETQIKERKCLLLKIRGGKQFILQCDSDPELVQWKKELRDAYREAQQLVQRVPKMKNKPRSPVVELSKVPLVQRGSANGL
Source text: as §1

[8] = molecular target: 320 wild-type protein kinases (Homo sapiens, UniProt Q86UE8); conditions: kinase TLK2, singlicate
Source text: as §1

[9] = molecular target: 320 wild-type protein kinases (Homo sapiens, UniProt P48729); conditions: singlicate
Source text: as §1

[10] = molecular target: T3, 320 wild-type protein kinases (Homo sapiens, UniProt Q9H093); conditions: kinase SNARK, singlicate
T3 sequence (Q9H093 1-628): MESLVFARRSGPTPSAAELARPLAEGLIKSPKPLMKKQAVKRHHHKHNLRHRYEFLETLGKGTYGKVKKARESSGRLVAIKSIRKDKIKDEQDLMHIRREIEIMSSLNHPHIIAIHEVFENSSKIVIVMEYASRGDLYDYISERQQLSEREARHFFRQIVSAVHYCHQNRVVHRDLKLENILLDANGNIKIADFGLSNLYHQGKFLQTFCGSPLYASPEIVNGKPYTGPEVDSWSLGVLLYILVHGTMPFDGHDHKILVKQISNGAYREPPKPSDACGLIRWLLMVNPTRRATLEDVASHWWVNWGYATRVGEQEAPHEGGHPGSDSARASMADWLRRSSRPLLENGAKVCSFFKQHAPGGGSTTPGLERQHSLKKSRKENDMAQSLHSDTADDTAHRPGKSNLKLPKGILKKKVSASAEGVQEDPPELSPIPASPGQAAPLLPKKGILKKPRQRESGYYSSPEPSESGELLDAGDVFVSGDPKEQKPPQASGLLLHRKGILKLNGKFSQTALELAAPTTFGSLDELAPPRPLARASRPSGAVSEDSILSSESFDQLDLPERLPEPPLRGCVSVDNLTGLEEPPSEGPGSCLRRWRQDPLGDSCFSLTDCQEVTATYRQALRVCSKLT
Source text: as §1

Sequence of 320 wild-type protein kinases (Homo sapiens, UniProt Q9UQM7) (Q9UQM7 whole entry): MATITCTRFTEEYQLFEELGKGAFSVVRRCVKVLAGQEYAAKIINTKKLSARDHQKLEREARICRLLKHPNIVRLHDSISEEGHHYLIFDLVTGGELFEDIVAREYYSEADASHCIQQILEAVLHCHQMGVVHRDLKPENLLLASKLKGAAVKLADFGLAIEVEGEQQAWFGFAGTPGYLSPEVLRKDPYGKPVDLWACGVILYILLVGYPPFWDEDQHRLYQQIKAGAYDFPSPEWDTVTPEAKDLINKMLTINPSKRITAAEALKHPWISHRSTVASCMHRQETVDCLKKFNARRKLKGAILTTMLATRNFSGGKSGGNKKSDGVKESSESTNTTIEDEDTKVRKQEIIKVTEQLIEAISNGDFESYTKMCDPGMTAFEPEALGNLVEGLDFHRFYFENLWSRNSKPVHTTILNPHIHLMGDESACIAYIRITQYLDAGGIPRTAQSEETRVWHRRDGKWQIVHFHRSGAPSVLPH
Sequence of 320 wild-type protein kinases (Homo sapiens, UniProt P48729) (P48729 whole entry): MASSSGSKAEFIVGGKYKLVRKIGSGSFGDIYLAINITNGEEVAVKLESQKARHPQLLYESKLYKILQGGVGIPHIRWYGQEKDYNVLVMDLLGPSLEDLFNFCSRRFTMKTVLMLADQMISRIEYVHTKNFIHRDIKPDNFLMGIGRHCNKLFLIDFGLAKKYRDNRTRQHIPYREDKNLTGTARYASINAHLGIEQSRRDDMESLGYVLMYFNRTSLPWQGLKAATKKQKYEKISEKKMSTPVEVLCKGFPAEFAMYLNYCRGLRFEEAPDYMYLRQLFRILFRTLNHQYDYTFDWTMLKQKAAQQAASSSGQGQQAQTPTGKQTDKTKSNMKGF
Sequence of 320 wild-type protein kinases (Homo sapiens, UniProt P07947) (P07947 whole entry): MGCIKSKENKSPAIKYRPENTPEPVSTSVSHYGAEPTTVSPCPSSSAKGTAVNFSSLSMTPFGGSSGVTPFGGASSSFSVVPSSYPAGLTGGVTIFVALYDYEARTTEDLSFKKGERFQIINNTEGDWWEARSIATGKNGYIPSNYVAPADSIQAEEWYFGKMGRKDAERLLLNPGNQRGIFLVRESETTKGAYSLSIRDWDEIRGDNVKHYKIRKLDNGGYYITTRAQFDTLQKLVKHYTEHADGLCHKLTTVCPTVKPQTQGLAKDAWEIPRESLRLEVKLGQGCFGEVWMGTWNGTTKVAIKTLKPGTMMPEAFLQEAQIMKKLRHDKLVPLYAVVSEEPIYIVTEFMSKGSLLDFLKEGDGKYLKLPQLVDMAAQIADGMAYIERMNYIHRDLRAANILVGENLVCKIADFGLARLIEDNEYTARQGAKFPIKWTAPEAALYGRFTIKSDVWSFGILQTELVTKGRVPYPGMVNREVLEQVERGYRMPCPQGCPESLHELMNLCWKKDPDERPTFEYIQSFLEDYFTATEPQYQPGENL
Sequence of 320 wild-type protein kinases (Homo sapiens, UniProt P42684) (P42684 whole entry): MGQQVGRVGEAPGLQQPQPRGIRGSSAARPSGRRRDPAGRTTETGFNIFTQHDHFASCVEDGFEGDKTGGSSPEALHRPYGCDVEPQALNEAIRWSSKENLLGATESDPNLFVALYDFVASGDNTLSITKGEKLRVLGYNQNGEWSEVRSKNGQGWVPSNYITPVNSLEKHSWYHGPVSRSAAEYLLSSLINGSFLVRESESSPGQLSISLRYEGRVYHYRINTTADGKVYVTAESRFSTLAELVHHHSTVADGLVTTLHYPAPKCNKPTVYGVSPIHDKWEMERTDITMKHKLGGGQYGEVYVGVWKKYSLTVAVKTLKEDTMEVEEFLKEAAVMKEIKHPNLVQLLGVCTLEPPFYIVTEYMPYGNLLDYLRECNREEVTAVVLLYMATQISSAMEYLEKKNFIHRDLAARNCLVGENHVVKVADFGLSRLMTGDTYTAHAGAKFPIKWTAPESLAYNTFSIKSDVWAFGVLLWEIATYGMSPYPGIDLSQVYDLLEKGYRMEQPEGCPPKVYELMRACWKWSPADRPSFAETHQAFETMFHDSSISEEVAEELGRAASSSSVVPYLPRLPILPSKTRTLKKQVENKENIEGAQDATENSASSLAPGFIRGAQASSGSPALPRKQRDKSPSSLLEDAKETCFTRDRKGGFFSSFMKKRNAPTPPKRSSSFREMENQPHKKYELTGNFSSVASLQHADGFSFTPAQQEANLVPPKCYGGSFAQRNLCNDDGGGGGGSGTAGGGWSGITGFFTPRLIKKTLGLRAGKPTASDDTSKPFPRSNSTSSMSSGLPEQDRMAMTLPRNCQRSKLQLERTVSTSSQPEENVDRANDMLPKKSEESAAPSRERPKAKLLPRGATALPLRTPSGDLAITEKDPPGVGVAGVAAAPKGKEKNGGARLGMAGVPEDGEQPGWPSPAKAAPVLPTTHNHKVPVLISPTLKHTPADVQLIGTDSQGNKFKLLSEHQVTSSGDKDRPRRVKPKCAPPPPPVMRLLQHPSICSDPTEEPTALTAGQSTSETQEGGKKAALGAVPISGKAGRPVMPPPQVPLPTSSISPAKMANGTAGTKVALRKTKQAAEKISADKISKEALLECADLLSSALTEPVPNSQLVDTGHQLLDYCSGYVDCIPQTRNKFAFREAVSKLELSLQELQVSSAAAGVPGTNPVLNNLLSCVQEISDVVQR
Sequence of 320 wild-type protein kinases (Homo sapiens, UniProt Q05655) (Q05655 whole entry): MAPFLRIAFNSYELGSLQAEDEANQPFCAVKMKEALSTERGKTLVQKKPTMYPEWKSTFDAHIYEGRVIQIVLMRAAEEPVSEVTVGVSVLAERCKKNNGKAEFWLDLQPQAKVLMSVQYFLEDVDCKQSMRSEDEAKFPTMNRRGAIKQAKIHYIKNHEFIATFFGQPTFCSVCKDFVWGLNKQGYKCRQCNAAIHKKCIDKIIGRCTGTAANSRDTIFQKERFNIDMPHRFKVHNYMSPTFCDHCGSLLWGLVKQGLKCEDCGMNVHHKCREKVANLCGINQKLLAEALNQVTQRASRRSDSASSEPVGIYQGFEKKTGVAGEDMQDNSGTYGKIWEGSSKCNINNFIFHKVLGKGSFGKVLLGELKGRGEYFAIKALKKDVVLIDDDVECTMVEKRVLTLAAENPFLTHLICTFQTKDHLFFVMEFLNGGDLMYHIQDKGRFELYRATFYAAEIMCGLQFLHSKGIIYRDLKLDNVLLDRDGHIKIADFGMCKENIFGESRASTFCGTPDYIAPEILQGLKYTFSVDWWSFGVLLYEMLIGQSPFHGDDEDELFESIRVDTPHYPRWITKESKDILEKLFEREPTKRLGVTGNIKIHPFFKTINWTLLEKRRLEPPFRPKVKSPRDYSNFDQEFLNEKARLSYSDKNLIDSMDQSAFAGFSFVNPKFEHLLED
Sequence of 320 wild-type protein kinases (Homo sapiens, UniProt Q86UE8) (Q86UE8 whole entry): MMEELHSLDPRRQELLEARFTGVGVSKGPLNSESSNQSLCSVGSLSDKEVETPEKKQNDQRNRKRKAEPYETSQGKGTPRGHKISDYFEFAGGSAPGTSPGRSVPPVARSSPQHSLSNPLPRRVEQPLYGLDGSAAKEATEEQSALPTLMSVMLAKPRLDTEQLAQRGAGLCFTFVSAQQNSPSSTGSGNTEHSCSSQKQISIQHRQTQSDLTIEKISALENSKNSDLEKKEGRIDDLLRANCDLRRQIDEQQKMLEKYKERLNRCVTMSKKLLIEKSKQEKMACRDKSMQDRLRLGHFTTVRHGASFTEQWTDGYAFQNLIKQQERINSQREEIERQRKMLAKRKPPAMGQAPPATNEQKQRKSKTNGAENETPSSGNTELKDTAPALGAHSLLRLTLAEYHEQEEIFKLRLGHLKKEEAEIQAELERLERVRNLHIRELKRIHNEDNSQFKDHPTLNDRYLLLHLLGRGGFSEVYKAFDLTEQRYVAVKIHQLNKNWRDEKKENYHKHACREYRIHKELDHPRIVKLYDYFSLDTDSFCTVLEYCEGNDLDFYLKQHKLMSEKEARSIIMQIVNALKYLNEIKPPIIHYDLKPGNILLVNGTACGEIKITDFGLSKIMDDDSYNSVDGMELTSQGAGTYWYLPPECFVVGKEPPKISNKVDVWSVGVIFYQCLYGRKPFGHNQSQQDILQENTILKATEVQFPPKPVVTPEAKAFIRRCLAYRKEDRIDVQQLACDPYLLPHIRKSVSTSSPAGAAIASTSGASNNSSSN
Sequence of 320 wild-type protein kinases (Homo sapiens, UniProt Q9BWU1) (Q9BWU1 whole entry): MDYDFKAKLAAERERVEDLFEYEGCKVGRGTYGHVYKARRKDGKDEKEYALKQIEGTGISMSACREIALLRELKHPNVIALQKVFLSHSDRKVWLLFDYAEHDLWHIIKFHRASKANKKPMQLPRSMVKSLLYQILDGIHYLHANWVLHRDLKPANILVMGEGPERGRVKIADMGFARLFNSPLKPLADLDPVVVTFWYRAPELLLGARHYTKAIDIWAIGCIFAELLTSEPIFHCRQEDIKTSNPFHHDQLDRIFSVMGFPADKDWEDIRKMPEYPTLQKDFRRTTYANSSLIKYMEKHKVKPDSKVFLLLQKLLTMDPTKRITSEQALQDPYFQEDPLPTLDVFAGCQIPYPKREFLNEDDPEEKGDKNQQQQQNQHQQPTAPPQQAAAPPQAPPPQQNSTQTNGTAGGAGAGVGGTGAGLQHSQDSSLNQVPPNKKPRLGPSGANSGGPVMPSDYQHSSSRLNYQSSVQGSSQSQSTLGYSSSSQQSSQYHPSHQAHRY

Compound | Residual activity ([1]; 1.0E-06 M) | Residual activity ([1]; 1.0E-07 M) | Residual activity ([2]; ABL2, 1.0E-06 M) | Residual activity ([2]; ABL2, 1.0E-07 M) | Residual activity ([3]; ACV-R1, 1.0E-06 M) | Residual activity ([3]; ACV-R1, 1.0E-07 M) | Residual activity ([4]; 1.0E-06 M) | Residual activity ([4]; 1.0E-07 M) | Residual activity, YES ([5]; assay conc. 1.0E-06 M) | Residual activity, YES ([5]; assay conc. 1.0E-07 M) | Residual activity ([6]; 1.0E-06 M) | Residual activity ([6]; 1.0E-07 M) | Residual activity ([7]; GRK2, 1.0E-06 M) | Residual activity ([7]; GRK2, 1.0E-07 M) | Residual activity, TLK2 ([8]; assay conc. 1.0E-06 M) | Residual activity, TLK2 ([8]; assay conc. 1.0E-07 M) | Residual activity ([9]; CK1-alpha1, 1.0E-06 M) | Residual activity ([9]; CK1-alpha1, 1.0E-07 M) | Residual activity, SNARK ([10]; assay conc. 1.0E-06 M) | Residual activity, SNARK ([10]; assay conc. 1.0E-07 M)
C#Cc1cc(Nc2ncnc3cc(I)ccc23)ccc1Cl [Compound 41] | 88 % of control | 92 % of control | 97 % of control | 106 % of control | 86 % of control | 91 % of control | 93 % of control | 91 % of control | 83 % of control | 101 % of control | 93 % of control | 99 % of control | 117 % of control | 104 % of control | 109 % of control | 117 % of control | 99 % of control | 104 % of control | 83 % of control | 101 % of control
C#Cc1cc(Nc2ncnc3cc(OC)c(OC)cc23)ccc1Cl [Compound 45] | 89 % of control | 115 % of control | 68 % of control | 96 % of control | 93 % of control | 98 % of control | 97 % of control | 104 % of control | 77 % of control | 100 % of control | 101 % of control | 104 % of control | 111 % of control | 96 % of control | 103 % of control | 111 % of control | 95 % of control | 98 % of control | 87 % of control | 88 % of control
